Assay results taken from PubChem BioAssay (NCI).
Several values for one entry are separate records, joined by “and”; a condition that tells them apart may be missing. Equal values may be shown once.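 Method: 48-hour compound exposure of cells in 96-well plates, five concentrations, linear interpolation of endpoints. At the GI50, growth is halved. Definition used: TGI = concentration required for complete inhibition of growth.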

Key:
Test in all cases: NCI anticancer screen, dose series, 48 h
786-0 renal = tested on: 786-0 renal
HCT-15 colon = tested on: HCT-15 colon
K-562 leukemia = tested on: K-562 leukemia
NCI-H522 lung = tested on: NCI-H522 lung
OVCAR-3 ovarian = tested on: OVCAR-3 ovarian
SK-MEL-28 melanoma = tested on: SK-MEL-28 melanoma
SK-MEL-5 melanoma = tested on: SK-MEL-5 melanoma
SNB-19 CNS = tested on: SNB-19 CNS
U251 CNS = tested on: U251 CNS
UACC-257 melanoma = tested on: UACC-257 melanoma

Structure (SMILES)	TGI (786-0 renal)	TGI (HCT-15 colon)	TGI (K-562 leukemia)	TGI (NCI-H522 lung)	TGI (OVCAR-3 ovarian)	TGI (SK-MEL-28 melanoma)	TGI (SK-MEL-5 melanoma)	TGI (SNB-19 CNS)	TGI (U251 CNS)	TGI (UACC-257 melanoma)	GI50 (786-0 renal)	GI50 (HCT-15 colon)	GI50 (K-562 leukemia)	GI50 (NCI-H522 lung)	GI50 (OVCAR-3 ovarian)	GI50 (SK-MEL-28 melanoma)	GI50 (SK-MEL-5 melanoma)	GI50 (SNB-19 CNS)	GI50 (U251 CNS)	GI50 (UACC-257 melanoma)
CCCN(CCCC(NC(C)=O)C(=O)NCc1ccccc1)C(=O)NC (centres undefined)	> 100 µM	> 100 µM	> 100 µM	> 100 µM	> 100 µM	> 100 µM	> 100 µM	> 100 µM	> 100 µM	> 100 µM										
OCCCN=NNc1ccc(-c2nc3ccccc3[nH]2)cc1	46.7 µM	> 100 µM	84.9 µM	60.6 µM	5.13 µM	6.46 µM	88.6 µM	48.8 µM	4.76 µM	> 100 µM	17 µM	4.43 µM	16.6 µM	12.5 µM	2.31 µM	2.47 µM	15.6 µM	22.9 µM	2.07 µM	10.4 µM
CC(=O)N1CC(Nc2ccc(OC(F)(F)F)cc2)=CC1=O	> 100 µM	> 100 µM	> 100 µM	5.75 µM	4.03 µM	> 100 µM	12.1 µM	> 100 µM	> 100 µM	> 100 µM	3.27 µM	0.45 µM	0.526 µM	1.8 µM	1.19 µM	7.29 µM	0.377 µM	3.22 µM	3.34 µM	> 100 µM
COc1ccc(/C(=N/NC(=O)NN)C(c2ccc(OC)cc2)C2(O)CNc3c(Cl)cc(Cl)cc32)cc1 (centres undefined)	> 100 µM	> 100 µM	> 100 µM	> 100 µM	> 100 µM	> 100 µM	> 100 µM	> 100 µM	> 100 µM	> 100 µM										
Cc1cccc(Oc2nccc(-c3c(-c4ccc(F)cc4)ncn3C3CCNCC3)n2)c1C	> 18 µM	> 25 µM	16 µM	> 16.2 µM	> 25 µM	9.48 µM	6.92 µM	> 25 µM	> 22.6 µM		8.22 µM	8.12 µM	5.68 µM	9.84 µM	14.3 µM	4.65 µM	3.61 µM	10.2 µM	7.28 µM	
CC(C)(C)c1nc2c(o1)C(=O)c1ccccc1C2=O	5.51 µM	6.45 µM	13.8 µM	3.85 µM	2.03 µM	4.35 µM	2.9 µM	9.81 µM	4.6 µM	1.43 µM										
Cc1cc2cc3cc(C)c(N(C)C)cc3nc2cc1N(C)C	16.3 µM	> 100 µM	> 100 µM	30 µM	11.1 µM	9.55 µM	4.71 µM	> 100 µM	> 100 µM	21.8 µM	3.87 µM	12.1 µM	4.79 µM	3.76 µM	2.54 µM	2.8 µM	1.73 µM	3.56 µM	1.42 µM	3.37 µM
O=C(CC1(O)C(=O)Nc2ccccc21)c1ccccc1Cl (centres undefined)	> 100 µM	> 100 µM	> 100 µM	> 100 µM	> 100 µM	> 100 µM	> 100 µM	> 100 µM		> 100 µM										
CC(=O)OC1CC(n2cc(F)c(=O)[nH]c2=O)OC1CO (centres undefined)	> 62.5 µM	> 100 µM	> 100 µM	23.9 µM	> 100 µM	> 100 µM	16.2 µM	> 100 µM	> 100 µM	> 100 µM										
COc1ccc(/C(Cl)=C(\C=O)c2ccc([N+](=O)[O-])cc2)cc1OC	20.1 µM	23.7 µM	> 93.3 µM	> 35.8 µM	38 µM	30.5 µM	23 µM	> 100 µM	20.2 µM	29.7 µM										
Cc1ccc(NC(=O)c2cccc([N+](=O)[O-])c2O)c([N+](=O)[O-])c1	37 µM	31.8 µM	> 100 µM	29.5 µM	44.1 µM	32 µM		82.9 µM	38.9 µM	33.4 µM										
O=C(CO)CC(=O)C(=O)Nc1nc([N+](=O)[O-])cs1	> 100 µM	> 100 µM	> 100 µM	> 100 µM	> 100 µM	> 100 µM	> 100 µM	> 100 µM	> 100 µM	> 100 µM										
O=P(O)(O)c1ccccc1 (tested in a mixture with another compound)	> 100 µM	> 100 µM	> 100 µM	> 100 µM	> 100 µM	> 100 µM	> 100 µM	> 100 µM	> 100 µM	> 100 µM										
CCCCCC(O)C1C(=O)OC(C)C(O)/C=C/C=C/C=C/C=C\C=C(\C)C(O)CC(O)CC(O)CC(O)CC(O)CC(O)CC1O (centres undefined)	> 100 µM	> 100 µM	> 100 µM	> 100 µM	> 100 µM	> 100 µM	> 100 µM	> 100 µM	> 100 µM	50 µM and > 100 µM	> 100 µM	> 100 µM	> 100 µM	> 100 µM	> 100 µM	> 100 µM	> 100 µM	> 100 µM	> 100 µM	> 100 µM
C/C(=N\NC(=O)c1ccncc1)c1ccc2ccccc2c1O	48.4 µM	> 100 µM	> 100 µM	12.4 µM	3.59 µM	> 100 µM	14.1 µM	> 100 µM	> 62.2 µM	24.6 µM										
COc1ccc(NC(=O)n2nc(N)c3ccccc32)cc1OC	> 100 µM	> 100 µM	> 100 µM	> 100 µM	> 100 µM	> 100 µM	> 100 µM	> 100 µM	> 100 µM	> 100 µM	> 100 µM	44.1 µM	41.2 µM	34.9 µM	92 µM	> 100 µM	27.9 µM	> 100 µM	61.7 µM	73.6 µM
O=C1C(Br)=CC2(C=C1Br)CCN=c1c2c(O)c2nc3ccccc3c3ccnc1c23	2.37 µM	1.59 µM	7.9 µM	1.49 µM	8.14 µM	2.49 µM	6.93 µM	12.1 µM	7.04 µM		0.987 µM	0.829 µM	1.8 µM	0.727 µM	1.51 µM	0.803 µM	1.4 µM	4.59 µM	1.67 µM	
